In patent US8258309B2, “Azapeptide derivatives” (priority 2007, dated 2012):

Columns and labels:
[1] = Chimp pharmacokinetics Run A, IV or PO co-dosing of atazanavir and Compounds 114, 120, 122; type: in vivo, chimpanzee; settings: for concentration at 24 h: concentration detected intact in urine
Experimental: Chimp Pharmacokineties. Run A: A 4 mg/mL solution of atazanavir and each of Compounds 114, 120 and 122 were prepared in 10% DMI (dimethyl isosorbide), 15% EtOH, 35% PG in D5W. Specifically, for each compound, 240 mgs of compound was dissolved in a solution composed of 6 mL of DMI, 9 mL of EtOH and 21 mL PG. Once the compound was fully dissolved, 24 mL of D5W was added and the solution mixed.
Fifty-five mL of each drug solution is then combined and the mixture was sterile filtered using a 0.2 μm filter. This produced 220 mL of a 1:1:1:1 mixture atazanavir:Compound 114:Compound 120:Compound 122. The final concentration of each drug in the solution was 1 mg/mL. Each animal received 50 mL of this solution through either IV or PO routes.
(§1) Four chimps (two male and two female) were used in this study and were fasted overnight prior to administration of the compound solution. Animals were sedated with ketamine and/or telazol prior to dosing. Intravenous dosing was achieved by IV infusion over 30 minutes.
(§2) Approximately 4.5 mL of blood was collected into vacutainer tubes with sodium heparin as an anticoagulant at 0 (preinfusion), 15 min., 29.5 min (immediately before the end of the infusion), and then at 6, 15, 30, and 45 minutes, and 1, 2, 4, 6, 8, 10, 12, 24 hours after the infusion is stopped. A similar procedure was used to collect blood after oral dosing with samples taken at 0 (predose), 15, and 30 minutes, and at 1, 1.5, 2, 4, 6, 8, 10, 12, 24 hours postdose. Following sample collection, the vacutainer tubes were rocked by hand several times to insure adequate mixing. Blood samples were placed immediately on wet ice and centrifuged within 1 hour from time of collection. Following centrifugation, the resulting plasma was stored frozen at −70° C. until analysis. The results are summarized in FIGS. 4 and 5 and tables 6 and 7.

[2] = Microsomal assay: stability in human liver microsomes; type: in vitro ADME; settings: human, liver microsomes, pH 7.4, human liver microsomes, repeated assay (Table 3); read-out: t1/2 (min) Avg ± SD (n = 3)
Experimental: Microsomal Assay. Human liver microsomes (20 mg/mL, pool of 50 individuals) were obtained from Xenotech LLC (Lenexa, Kans.). The incubation mixtures are prepared as follows. Stock solutions (10 mM) solutions of test Compounds 103, 106, 122 and of atazanavir were prepared in DMSO. The 10 mM stock solutions were diluted to 1 mM in acetonitrile (ACN). […] The microsome-test compound mixtures were added to wells of a 2 mL 96-well deep well polypropylene plate in triplicate. The plate was warmed to 37° C. before initiating the reactions by addition of prewarmed NADPH in 0.1 M potassium phosphate buffer, pH 7.4, containing 3 mM MgCl2. The final reaction mixture composition contained: • Liver Microsomes 0.5 mg/mL • NADPH 2 mM • Potassium Phosphate, pH 7.4 100 mM • Magnesium Chloride 3 mM • Test Compound 1.0 μM. The reaction mixtures were incubated at 37° C. and 50 μL aliquots were removed at 0, 3, 7, 12, 20, and 30 minutes and added to shallow-well 96-well plates which contained 50 μL of ice-cold ACN with internal standard to stop the reactions. The plates were stored at −20° C. for 30 minutes, after which 100 μL of water was added to the wells of the plate before centrifugation to pellet precipitated proteins. Supernatants were transferred to another 96-well plate and analyzed for amounts of parent remaining by LC-MS/MS using an Applied Biosystems API 4000 mass spectrometer. […] Data analysis was performed using Microsoft Excel Software. […] The results are shown in FIGS. 2 and 3 and in Table 3, below: […]

[3] = in vivo; settings: chimpanzee, po
Experimental: as §1, §2
Run B: Same as Run A, except the dose was 150 mg orally of each of atazanavir and compounds 114 and 120, and the vehicle was 10 percent ethanol, 40 percent polypropylglycol in 2.5 percent citric acid.

## [2H]C([2H])([2H])OC(=O)N[C@H](C(=O)N[C@@H](Cc1ccccc1)[C@@H](O)CN(Cc1ccc(-c2ccccn2)cc1)NC(=O)[C@@H](NC(=O)OC)C(C)(C)C)C(C([2H])([2H])[2H])(C([2H])([2H])[2H])C([2H])([2H])[2H] [Compound 114, 1-Methyl-14-(methyl-d3)(3S,8S,9S,12S)-3-(1,1-dimethylethyl)-12-[(1,1-dimethylethyl)-d9]-8-hydroxy-4,11-dioxo-9-(phenylmethyl)-6-[[4-(2-pyridinyl)phenyl]methyl]-2,5,6,10,13-pentaazatetradecanedioate]
[1]; chimp A242E, PO, 24 hours, Run A
  Ratio of urine concentration, compound:Atazanavir: 1.8
[1]; chimp A336C, IV, 24 hours, Run A
  Ratio of urine concentration, compound:Atazanavir: 1.5
[1]; chimpanzee, in vivo, iv, 24 h
  Ratio of urine concentration, compound:Atazanavir: 1.3
  concentration detected intact in urine: 2.82 µg/mL
[1]; chimpanzee, in vivo, iv
  concentration at 24 h: 2.75 µg/mL
[1]; chimpanzee, in vivo, po, 24 h
  Ratio of urine concentration, compound:Atazanavir: 1.8
  concentration detected intact in urine: 0.963 µg/mL
[1]; chimpanzee, in vivo, po
  concentration at 24 h: 1.07 µg/mL
[2]
  half-life at 1 μM: 31.5 ± 0.8 min
[3]; 24 h
  concentration detected intact in urine: 4.58 µg/mL
[3]; concentration detected intact in urine
  concentration at 24 h: 2.53 µg/mL
